In ChEMBL document CHEMBL4130367, “Click chemistry-based synthesis and anticancer activity evaluation of novel C-14 1,2,3-triazole dehydroabietic acid hybrids” (Eur J Med Chem, 2017):
Calls of active or inactive are those of the source. No cut-off for these calls is given here.

Assays:
MDA-MB-231 [1] = assay: Induction of apoptosis in human MDA-MB-231 cells assessed as downregulation of Bcl2 protein expression after 48 hrs by Western blot analysis; assay type: functional, cell-based
SK-BR-3 = assay: Cytotoxicity against human SKBR3 cells assessed as reduction in cell viability after 72 hrs by MTT assay; assay type: functional, cell-based; details: SK-BR-3, 72 h
[2] = Metabolic stability in mouse liver microsomes assessed as parent compound remaining after 60 mins in presence of NADPH by HPLC analysis; assay type: ADME, microsome; details: read-out: Stability
[3] = Selectivity index, ratio of IC50 for HFF cells to IC50 for human A549 cells; assay type: toxicity; details: HFF cells versus A549 cells, read-out: Ratio IC50
[4] = Octanol-water partition coefficient, log P of the compound; assay type: physicochemical
[5] = Metabolic stability in mouse liver microsomes assessed as parent compound remaining after 120 mins in presence of NADPH by HPLC analysis; assay type: ADME, microsome; details: read-out: Stability
[6] = Metabolic stability in rat liver microsomes assessed as parent compound remaining after 90 mins in presence of NADPH by HPLC analysis; assay type: ADME, microsome; details: read-out: Stability
LNCaP = assay: Cytotoxicity against human LNCAP cells assessed as reduction in cell viability after 72 hrs by MTT assay; assay type: functional, cell-based
L02 = assay: Cytotoxicity against human HL7702 cells assessed as reduction in cell viability after 72 hrs by MTT assay; assay type: cell-based; details: L02, 72 h
[7] = Metabolic stability in mouse liver microsomes assessed as parent compound remaining after 30 mins in presence of NADPH by HPLC analysis; assay type: ADME, microsome; details: read-out: Stability
[8] = Selectivity index, ratio of IC50 for HFF cells to IC50 for human U251 cells; assay type: toxicity; details: HFF cells versus U251 cells, read-out: Ratio IC50
[9] = Selectivity index, ratio of IC50 for human HL7702 cells to IC50 for human SMCC7721 cells; assay type: toxicity; details: HL7702 cells versus SMCC7721 cells, read-out: Ratio IC50
MDA-MB-231 [10] = assay: Induction of apoptosis in human MDA-MB-231 cells assessed as dead cells at 0.1 uM after 24 hrs by Annexin V-FITC/propidium iodide staining based flow cytometry (reference value: 2.15%); assay type: functional
[11] = Metabolic stability in dog liver microsomes assessed as parent compound remaining after 120 mins in presence of NADPH by HPLC analysis; assay type: ADME, Canis lupus familiaris, microsome; details: 2 h
[12] = Selectivity index, ratio of IC50 for human HL7702 cells to IC50 for human LNCAP cells; assay type: toxicity; details: HL7702 cells versus LNCAP cells, read-out: Ratio IC50
[13] = Metabolic stability in rat liver microsomes assessed as parent compound remaining after 60 mins in presence of NADPH by HPLC analysis; assay type: ADME, microsome; details: read-out: Stability
[14] = Metabolic stability in rat liver microsomes assessed as parent compound remaining after 30 mins in presence of NADPH by HPLC analysis; assay type: ADME, microsome; details: read-out: Stability

COC(=O)[C@]1(C)CCC[C@]2(C)c3ccc(C(C)C)c(NC(=O)Cn4cc(-c5cccc(NC(=O)OC(C)(C)C)c5)nn4)c3CC[C@@H]12
Activity (MDA-MB-231 [1]): Active | IC50 (SK-BR-3): 900 nM | remaining at 1 h [2]: 72.6% | selectivity ratio [3]: 4.2 | logP [4]: 6.07 | remaining at 2 h [5]: 43.7% | remaining at 1.5 h [6]: 70.5% | IC50 (LNCaP): 600 nM | IC50 (L02): 7800 nM | remaining at 0.5 h [7]: 87.9% | selectivity ratio [8]: 3.1 | selectivity ratio [9]: 7.6 | Activity (MDA-MB-231 [10]): 7.57% | Stability [11]: 4.8% | selectivity ratio [12]: 12.4 | remaining at 1 h [13]: 79.3% | remaining at 0.5 h [14]: 85.4%
